Source: paper PMC7395068, “The evolution of strategies to minimise the risk of human drug-induced liver injury (DILI) in drug discovery and development” (Archives of Toxicology, 2020)
Where two headings read alike, the source gives them in different places.

What was measured:
[1] = Plasma free fraction (fu) and unbound Cmax (Cmax,u); assay type: in vitro ADME, human; settings: unbound plasma Cmax
Method: The prediction of DILI severity was evaluated further using the 3D combined HCI assays using plasma-free fraction. The majority of fu values were obtained from literature, when unavailable in-house prediction was utilised. Unbound plasma Cmax concentrations (Cmax,u) were derived by multiplying total plasma Cmax with the corresponding free fraction (fu) for each compound.

HepG2 = system: HepG2; design: method as in Albrecht 2019; settings: In vitro Assay; ref Albrecht 2019; cited from earlier work
[2] = cited from earlier work
HepG2 cells [3] = settings: cited from earlier work; for Structural based (HCI): In vitro Assay, ref O'Brien 2006
[4] = system: THLE or HepG2 cells, isolated mitochondria, BSEP; settings: cited from earlier work; for Partition Hybrid HRM Score / Ro2 Hybrid HRM Score: In vitro Assay, ref Aleo 2019
PHH [5] = settings: cited from earlier work
hLiMTs [6] = settings: cited from earlier work
PHH spheroids = settings: cited from earlier work; for hLiMTs ATP <20 x Cmax: In vitro Assay, ref Vorrink 2018
[7] = read-out: Human plasma Cmax; total plasma Cmax.tot, median of 9 literature references; cited from earlier work
[8] = plasma free fraction; cited from earlier work
[9] = cited from earlier work; remark: listed apart in the source
PHH [10] = settings: In vitro Assay; ref Albrecht 2019; cited from earlier work
hLiMTs [11] = test: Combined HCI (HCS) and cellular ATP 3D assay in hLiMTs; settings: for AC50 / minimal effective concentration: Homo sapiens
HepaRG spheroids = test: Combined HCI (HCS) and cellular ATP 3D assay in HepaRG spheroids; settings: for AC50 / minimal effective concentration: Homo sapiens
human hepatocytes = settings: In vitro Assay; ref Xu 2008; cited from earlier work
[12] = system: HepG2 cells, primary human hepatocytes; settings: In vitro Assay; ref Garside 2014; cited from earlier work
[13] = ref Chen 2011; cited from earlier work
rBsep = settings: In vitro Assay; ref Dawson 2012; cited from earlier work
HepG2 cells [14] = settings: In vitro Assay; ref Persson 2013; cited from earlier work
[15] = system: primary human hepatocytes, NIH3T3 fibroblasts, BSEP, CYP3A4; settings: In vitro Assay; ref Schadt 2015; cited from earlier work
[16] = system: THLE-Null and THLE-3A4 cells; settings: In vitro Assay; ref Gustafsson 2014; cited from earlier work
[17] = Modeled in vitro assays (cytotoxicity, mitochondrial dysfunction, BSEP), ref Aleo et al. 2019
[18] = In vitro Assay, ref Proctor 2017
[19] = Microtissue model structural based (HCI), combined HCS and ATP, MEC < 25 × Cmax.tot cut-off

Compound: CN(C)CCC(c1ccc(Cl)cc1)c1ccccn1 (stereo not shown) [chlorpheniramine]
- Human plasma Cmax,u [1]: 101 nM
- Cytotoxicity HepG2 48 hrs (HepG2): -VE
- DILI severity category (Chen et al. [2016]) ([2]; LTKB DILIrank category, ref Chen et al. 2016): No
- DILI severity category (Chen 2016) ([2]; human DILI classification, LTKB DILIrank, ref Chen et al. 2016): No
- DILI severity category ([2]; human DILI severity, ref Chen et al.): No
- DILI +VE (5-8), DILI -VE (-4) ([2]; ref Chen 2016): -VE
- DILI severity category ([2]; ref Chen 2016): vNo-DILI-Concern
- Structural based (HCI) (HepG2 cells [3]): +VE
- DILI in vitro assay prediction, O'Brien (2006) (HepG2 cells [3]; Structural based (HCI), HepG2, ref O'Brien et al. 2006): -VE
- Partition Hybrid HRM Score [4]: -VE
- Ro2 Hybrid HRM Score [4]: -VE
- Partition Hybrid HRM Score ≥4, Aleo (2019) [4, 17]: -VE
- Partition Hybrid HRM Score ≥8, Aleo (2019) [4, 17]: -VE
- Rule of Two hybrid HRM Score ≥3, Aleo (2019) [4, 17]: -VE
- Rule of Two hybrid HRM Score ≥8, Aleo (2019) [4, 17]: -VE
- PHH/100uM, Proctor (2017) (PHH [5]; 2D PHH, ATP, IC50 threshold 100 µM, ref Proctor et al. 2017): -VE
- PHH ATP <100uM (PHH [5]; [18]): -VE
- hLiMTs ATP <100uM (hLiMTs [6]; [18]): +VE (IC50 threshold of 100 µM)
- hLiMTs/100uM, Proctor (2017) (hLiMTs [6]; hLiMTs, ATP, IC50 threshold 100 µM, ref Proctor et al. 2017): +VE (IC50 threshold of 100 µM)
- hLiMTs ATP <20 x Cmax (PHH spheroids): -VE
- DILI in vitro assay prediction, Vorrink (2018) (PHH spheroids; PHH spheroids, ATP, 14 days, IC20 < 20 × Cmax.tot, ref Vorrink et al. 2018): -VE
- Cmax [7]: 366 nM
- fu [8]: 0.277
- Assigned DILI category ([9]; Chen et al. 2016 or literature alignment, ref Chen et al. 2016): 1
- In vivo DILI ([9]; ref Albrecht 2019): -VE
- In vivo DILI ([9]; ref Aleo 2019): -VE
- In vivo DILI ([9]; ref O'Brien 2006): -VE
- In vivo DILI ([9]; ref Proctor 2017): +VE
- In vivo DILI ([9]; ref Vorrink 2018): -VE
- In vivo DILI ([9]; ref Xu 2008): +VE
- Cytotoxicity PHH 48 hrs (PHH [10]): -VE
- AC50 (hLiMTs [11]; read-out: ATP endpoint AC50): 30.9 µM
- minimal effective concentration (hLiMTs [11]; read-out: ATP endpoint MEC): 10.7 µM
- AC50 (hLiMTs [11]; read-out: HCS endpoint AC50): 98.5 µM
- minimal effective concentration (hLiMTs [11]; read-out: HCS endpoint MEC): 66.6 µM
- DILI prediction hLiMTs (HCS-MEC) (hLiMTs [11]; [19]): -VE
- hLiMTs <25x Avg Cmax ATP (hLiMTs [11]; hLiMTs, ATP endpoint, cut-off <25x Avg Cmax): -ve
- hLiMTs <100x Avg Cmaxu ATP (hLiMTs [11]; hLiMTs, ATP endpoint, cut-off <100x Avg Cmaxu): -ve
- hLiMTs <25x Avg Cmax HCS (hLiMTs [11]; hLiMTs, HCS endpoints, cut-off <25x Avg Cmax): -ve
- hLiMTs <100x Avg Cmaxu HCS (hLiMTs [11]; hLiMTs, HCS endpoints, cut-off <100x Avg Cmaxu): -ve
- hLiMTs <25x Avg Cmax All (hLiMTs [11]; hLiMTs, all endpoints (ATP and HCS), cut-off <25x Avg Cmax): -ve
- hLiMTs Cmax max All (hLiMTs [11]; hLiMTs, all endpoints, Cmax max used): -ve
- hLiMTs Cmax min All (hLiMTs [11]; hLiMTs, all endpoints, Cmax min used): -ve
- hLiMTs <10 uM All (hLiMTs [11]; hLiMTs, all endpoints, cut-off <10 uM): -ve
- hLiMTs <100x Avg Cmaxu All (hLiMTs [11]; hLiMTs, all endpoints, cut-off <100x Avg Cmaxu): -ve
- HepaRG <25x Avg Cmax ATP (HepaRG spheroids; HepaRG, ATP endpoint, cut-off <25x Avg Cmax): -ve
- HepaRG <100x Avg Cmaxu ATP (HepaRG spheroids; HepaRG, ATP endpoint, cut-off <100x Avg Cmaxu): -ve
- HepaRG <25x Avg Cmax HCS (HepaRG spheroids; HepaRG, HCS endpoints, cut-off <25x Avg Cmax): -ve
- HepaRG <100x Avg Cmaxu HCS (HepaRG spheroids; HepaRG, HCS endpoints, cut-off <100x Avg Cmaxu): -ve
- HepaRG <25x Avg Cmax All (HepaRG spheroids; HepaRG, all endpoints (ATP and HCS), cut-off <25x Avg Cmax): -ve
- HepaRG Cmax max All (HepaRG spheroids; HepaRG, all endpoints, Cmax max used): -ve
- HepaRG Cmax min All (HepaRG spheroids; HepaRG, all endpoints, Cmax min used): -ve
- HepaRG <10 uM All (HepaRG spheroids; HepaRG, all endpoints, cut-off <10 uM): -ve
- HepaRG <100x Avg Cmaxu All (HepaRG spheroids; HepaRG, all endpoints, cut-off <100x Avg Cmaxu): -ve
- AC50 (HepaRG spheroids; HepaRG, read-out: ATP endpoint AC50): 129 µM
- minimal effective concentration (HepaRG spheroids; HepaRG, read-out: ATP endpoint MEC): 120 µM
- AC50 (HepaRG spheroids; HepaRG, read-out: HCS endpoint AC50): 119 µM
- minimal effective concentration (HepaRG spheroids; HepaRG, read-out: HCS endpoint MEC): 14.3 µM
- DILI prediction HepaRG spheroids (HCS-MEC) (HepaRG spheroids; [19]): -VE

Compound: NC(N)=Nc1nc(CSCCC(N)=NS(N)(=O)=O)cs1 [famotidine]
- Cytotoxicity HepG2 48 hrs (HepG2): -VE
- DILI +VE (5-8), DILI -VE (-4) ([2]; ref Chen 2016): +VE
- DILI severity category ([2]; ref Chen 2016): vLess-DILI-Concern
- Structural based (HCI) (HepG2 cells [3]): +VE
- Structural based (HCI) (human hepatocytes): -VE
- In vivo DILI ([9]; ref Albrecht 2019): -VE
- In vivo DILI ([9]; ref Dawson 2012): +VE
- In vivo DILI ([9]; ref Garside 2014): +VE
- In vivo DILI ([9]; ref O'Brien 2006): +VE
- In vivo DILI ([9]; ref Xu 2008): -VE
- Cytotoxicity PHH 48 hrs (PHH [10]): -VE
- Cluster 1-6 +VE Assay [12]: -VE
- DILI Score (FDA) (1-8) [13]: 3
- Inhibition of rBsep cutoff<1& cmax u>.2 (rBsep): -VE
- Inhibition of rBsep cutoff<3 (rBsep): -VE

Compound: CC(CCc1ccccc1)NCC(O)c1ccc(O)c(C(N)=O)c1 (stereo not shown) [labetalol]
- Cytotoxicity HepG2 48 hrs (HepG2): +VE
- DILI +VE (5-8), DILI -VE (-4) ([2]; ref Chen 2016): +VE
- DILI severity category ([2]; ref Chen 2016): vMost-DILI-Concern
- Structural based (HCI) (HepG2 cells [3]): +VE
- Cluser analysis (HepG2 cells [14]): -VE
- Structural based (HCI) (HepG2 cells [14]): -VE
- Structural based (HCI) (human hepatocytes): +VE
- hLiMTs ATP <20 x Cmax (PHH spheroids): -VE
- In vivo DILI ([9]; […]): +VE
- In vivo DILI ([9]; ref Albrecht 2019): +VE
- In vivo DILI ([9]; ref Aleo 2019): +VE
- In vivo DILI ([9]; ref Garside 2014): +VE
- In vivo DILI ([9]; ref O'Brien 2006): +VE
- In vivo DILI ([9]; ref Persson 2013): +VE
- In vivo DILI ([9]; ref Vorrink 2018): +VE
- In vivo DILI ([9]; ref Xu 2008): +VE
- Cytotoxicity PHH 48 hrs (PHH [10]): +VE
- Cluster 1-6 +VE Assay [12]: +VE
- DILI Score (FDA) (1-8) [13]: 8

Compound: Cc1oncc1C(=O)Nc1ccc(C(F)(F)F)cc1 [leflunomide]
- Cytotoxicity HepG2 48 hrs (HepG2): +VE
- DILI +VE (5-8), DILI -VE (-4) ([2]; ref Chen 2016): +VE
- DILI severity category ([2]; ref Chen 2016): vMost-DILI-Concern
- Cellular toxicity (3T3 cells) [15]: -VE
- Combined Assay [15]: -VE
- GSH adduct HML [15]: +VE
- Hepatocyte cellular toxicity [15]: -VE
- MitoTox 3T3 [15]: -VE
- TDI CYP3A4 [15]: -VE
- hBSEP inhibition [15]: -VE
- Structural based (HCI) (HepG2 cells [3]): +VE
- Structural based (HCI) (human hepatocytes): -VE
- Partition Hybrid HRM Score [4]: +VE
- Ro2 Hybrid HRM Score [4]: +VE
- In vivo DILI ([9]; ref Albrecht 2019): +VE
- In vivo DILI ([9]; ref Aleo 2019): +VE
- In vivo DILI ([9]; ref Dawson 2012): +VE
- In vivo DILI ([9]; ref Garside 2014): +VE
- In vivo DILI ([9]; ref Gustafsson 2014): +VE
- In vivo DILI ([9]; ref O'Brien 2006): +VE
- In vivo DILI ([9]; ref Schadt 2015): +VE
- In vivo DILI ([9]; ref Xu 2008): +VE
- Cytotoxicity PHH 48 hrs (PHH [10]): +VE
- THLE-Null [16]: -VE
- THLE-Null/3A4 [16]: -VE
- Cluster 1-6 +VE Assay [12]: -VE
- DILI Score (FDA) (1-8) [13]: 8
- Inhibition of rBsep cutoff<1& cmax u>.2 (rBsep): -VE
- Inhibition of rBsep cutoff<3 (rBsep): +VE

Compound: Cc1ccnc2c1NC(=O)c1cccnc1N2C1CC1 [nevirapine]
- Cytotoxicity HepG2 48 hrs (HepG2): +VE
- DILI +VE (5-8), DILI -VE (-4) ([2]; ref Chen 2016): +VE
- DILI severity category ([2]; ref Chen 2016): vMost-DILI-Concern
- Cellular toxicity (3T3 cells) [15]: -VE
- Combined Assay [15]: +VE
- GSH adduct HML [15]: +VE
- Hepatocyte cellular toxicity [15]: -VE
- MitoTox 3T3 [15]: +VE
- TDI CYP3A4 [15]: -VE
- hBSEP inhibition [15]: -VE
- Partition Hybrid HRM Score [4]: +VE
- Ro2 Hybrid HRM Score [4]: -VE
- In vivo DILI ([9]; […]): +VE
- In vivo DILI ([9]; ref Albrecht 2019): +VE
- In vivo DILI ([9]; ref Aleo 2019): +VE
- In vivo DILI ([9]; ref Garside 2014): +VE
- In vivo DILI ([9]; ref Schadt 2015): +VE
- Cytotoxicity PHH 48 hrs (PHH [10]): +VE
- Cluster 1-6 +VE Assay [12]: -VE
- DILI Score (FDA) (1-8) [13]: 8
